The series is described as follows: Drug release (dissolution) tests in phosphate buffer pH 7.2. It is filed as physicochemical. As to conditions: gelatin capsule, phosphate buffer pH 7.2, 37.0° C., 400 rpm. As for the experimental part: Drug release tests for piroxicam nanoparticles and bulk (reference) piroxicam were done to investigate the effect of particle size on the dissolution rate. The tests were conducted in glass vials under heating (37.0±0.5° C.) and stirring (400 rpm) (H+P Labortechnik AG, Multitherm, Germany). Samples were placed in a gelatin capsule and anchored with an iron wire to prevent the capsule from surfacing. The capsule was then placed in glass vials containing phosphate buffer (50 mL; pH 7.2). Aliquots (1 mL) were taken at the time points ranging from 1 min to 48 hours. Drug release tests were conducted in triplicate. Samples were analyzed with high performance liquid chromatography (HPLC Thermo System Products, Agilent 1200 Infinity Series, Agilent Technologies, Germany) using a Discovery® C18 (Supelco Analytical, U.S.) column with guard column and a flow rate of 1 mL/min. The mobile phase was 60:40 (v/v) acetonitrile and 0.05% trifluoroacetic acid. The UV detection of piroxicam was set to 333 nm with a retention time of 2.9 min and total run time of 4 min at 30° C. A standard curve for […] quantification was made from piroxicam concentrations of 0.1-25 μg/mL (R^2=0.999).

Consider `CN1C(C(=O)Nc2ccccn2)=C(O)c2ccccc2S1(=O)=O` [bulk piroxicam, 4-hydroxy-2-methyl-N-(2-pyridinyl)-2H-1,2-benzothiazine-3-carboxamide 1,1-dioxide], for which the “dissolution rate compared with the literature (Lai et al. 2011)” value was “agreed and exceeded that reported in the literature”.

The values are drawn from patent publication US10098842B2, “Method and a device for producing nanoparticles” (Nanoform Finland Oy, priority 2014, dated 2018).
